≈ marks a conversion by molar mass, not a printed value.
Assays:
P-388 = experiment: in vitro test, P-388; type: cell-based; conditions: Mus musculus, P388
Description: (§1) On the other hand, the results of the tests in vitro carried out on compounds (IIIa) and (IIIb) were the following: […]

A-549 = experiment: in vitro test, A-549; type: cell-based; conditions: Homo sapiens, A549
Description: as §1

HT-29 = experiment: in vitro test, HT-29; type: cell-based; conditions: Homo sapiens
Description: as §1

MEL-28 = experiment: in vitro test, MEL-28; type: cell-based; conditions: Homo sapiens, SK-MEL-28
Description: as §1

P388 leukemic tumor = experiment: P388 antitumoral model in vivo, survival of leukemic mice (%C/T); parameters: species or system mouse
Procedure: Description of the P388 Antitumoral Model
Normally, 1×10^6 cells in ascitic fluid was implanted. i.p. in CD2 F1 mice. Treatment with the agent tested i.p. began one day after the tumor had been implanted and it is continued daily up to a total of 5 injections for synthetic products and of 9 injections for raw natural products. The results are expressed as percentage of the control survival time.
CDFl mice weighing 18-22 gr (+/-3 gr) were implanted on day 0 of the test period 0.1 ml. of a dilution of 1.0×10^7 tumor cells coming from DBA/2N mice used for the propagation of the tumor.
On day 1 of the test period the animals were grouped at randam in groups of six animals. Each group is weighed and the average weight is written down. Each compound to be tested in duluted in 4 lvels of dosis for each multidose test as of the determiantion of the highest non-toxic dose (v.g. 400 mg/kg; 100 mg/kg; 10 mg/kg.)
Administration of the test compounds is started on day 1 using volumns of 1/2 drug injected i.p. Injections are given on days 1 to 9 of the test period, unless it is indicated to the contrary. The animals are weighed on day 5, which is the one which in this system is considered the day of toxicity. Toxicity in this test system is defined as: […]
A. 34% deaths up to day 5--acute toxicity
B. C/T <85% --chronic toxicity
C. A negative average of the weight change of the animals >4 g up to day 5--chronic toxicity
The data obtained upon testing the compounds in vivo in comparison with the P388 leukemic tumor model in mice are shown in the following table:
Where %C/T means average survival of the tested group/average survival of […]

cancer = experiment: anticarcinogenic activity in vivo and toxicity, general statement on the biological activity studies; conditions: in words; for toxicity: in vivo
Description: This makes them especially ideal for used as agents for the therapeutic treatment of cancer in its diverse manifestations and, especially, in cases of leukemia.

P388 = conditions: cited from earlier work
[1] = cited from earlier work
[2] = compared with CC-1065; cited from earlier work
[3] = in words; cited from earlier work

## COC(=O)c1cn(C)c2c(OC(=O)c3ccc([N+](=O)[O-])cc3)cc3c(c12)C(CCl)CN3C(=O)c1cc2cc(NC(=O)c3cc4ccccc4o3)ccc2[nH]1 (stereo not drawn) [IIIb]
P-388
  IC50: 0.02 ng/mL (≈ 0.0268 nM)
A-549
  IC50: 0.1 ng/mL (≈ 0.134 nM)
HT-29
  IC50: 0.5 ng/mL (≈ 0.67 nM)
MEL-28
  IC50: 0.5 ng/mL (≈ 0.67 nM)

## COC(=O)c1cn(C)c2c1C13CC1CN(C(=O)c1cc4cc(OC)c(OC)c(OC)c4[nH]1)C3=CC2=O (stereo not drawn) [(VI), methyl 2-(5,6,7-trimethoxy-1H-indolz2-carbonyl)-5-methyl-4-oxo-1,2,4,5,8a-hexahydrocyclopropa[c]pyrrolo[3,2-e]indol-7-carboxylate]
P388 leukemic tumor; 0.500 mg/kg i.p.
  %C/T (average survival of the tested group/average survival of the controls and untreated ones): 210.9%
  %C/T activity class (significance mark): ** (Significant activity (strong): C/T > = 175%)
cancer
  toxicity: very low toxicity
  anticarcinogenic activity in vivo: high anticarcinogenic activity in vivo

## O=C(Nc1ccc2[nH]c(C(=O)N3CC4CC45C3=CC(=O)c3ccccc35)cc2c1)c1cc2ccccc2[nH]1 (stereo not drawn) [CBI-Ind2]
P388
  results in the P388 model in vivo: very good results in the P388 model in vivo

## COC(=O)c1cn(C)c2c1C13CC1CN(C(=O)c1cc4cc(NC(=O)c5cc6ccccc6o5)ccc4[nH]1)C3=CC2=O (stereo not drawn) [(IV), methyl 2-[5-[(benzofuran-2-ylcarbonyl)amino]-1H-indol-2-carbonyl]-5-methyl-4-oxo,1,2,4,5,8,8,a-hexahydrocyclopropa[c]pyrrolo[3,2-e]indol-7-carboxylate]
P388 leukemic tumor; 0.300 mg/kg i.p.
  %C/T (average survival of the tested group/average survival of the controls and untreated ones): 251.1%
  %C/T activity class (significance mark): ** (Significant activity (strong): C/T > = 175%)
cancer
  toxicity: very low toxicity
  anticarcinogenic activity in vivo: high anticarcinogenic activity in vivo

## COC(=O)c1cn(C)c2c(O)cc3c(c12)C(CCl)CN3C(=O)c1cc2cc(OC)c(OC)c(OC)c2[nH]1 (stereo not drawn) [Compound (V), methyl 6-(5,6,7-trimethoxy-1H-indol-2-carbonyl)-8-chloromethyl-4-hydroxy-3-methyl-3,6,7,8-tetra-hydropyrrololo[3,2-e]indol-1-carboxylate]
P388 leukemic tumor; 0.050 mg/kg i.p.
  %C/T (average survival of the tested group/average survival of the controls and untreated ones): 133.9%
  %C/T activity class (significance mark): ** (Significant activity (strong): C/T > = 175%)
cancer
  toxicity: very low toxicity
  anticarcinogenic activity in vivo: high anticarcinogenic activity in vivo

## COC(=O)c1cn(C)c2c(O)cc3c(c12)C(CCl)CN3C(=O)c1cc2cc(NC(=O)c3cc4ccccc4o3)ccc2[nH]1 (stereo not drawn) [Compound (III), methyl 6-{5-[(benzofuran-2-ylcarbonyl)-amino]1H-indol-2-carbonyl}-8-chloromethyl-4-hydroxy-3-methyl-3,6,7,8,tetrahydropyrrolo[3,2-e]indol-1-carboxylate]
P388 leukemic tumor; 0.500 mg/kg i.p.
  %C/T (average survival of the tested group/average survival of the controls and untreated ones): > 391.3%
cancer
  toxicity: very low toxicity
  anticarcinogenic activity in vivo: high anticarcinogenic activity in vivo

## Cc1c[nH]c2c1C13CC1CN(C(=O)c1cc4cc(NC(=O)c5cc6ccccc6o5)ccc4[nH]1)C3=CC2=O (stereo not drawn) [Adocelesine]
[1]; mouse, in vivo
  delayed lethality: without provoking delayed lethality
[2]
  tumoral effectiveness versus the natural product: greatly exceeds the natural product in tumoral effectiveness

## COc1c(O)c2c(c3cc(C(=O)N4CCc5c4c(O)c(OC)c4[nH]c(C(=O)N6CC7CC78C6=CC(=O)c6[nH]cc(C)c68)cc54)[nH]c13)CCN2C(N)=O (stereo not drawn) [CC-1065]
[1]; mice, therapeutic doses
  toxicity (delayed deaths): high toxicity, producing delayed deaths in mice at therapeutic doses
[3]
  cytotoxic strength: extremely strong cytoxine
